Reference: paper PMC10844532, “The in vivo study on antioxidant activity of wendan decoction in treating hyperlipidemia: a pharmacokinetic-pharmacodynamic (PK-PD) model” (Frontiers in Pharmacology, 2024)
Read-outs that look alike come from different tables or passages of the source.

Columns and labels:
[1] = Plasma pharmacokinetics of 10 WDD components after gavage of WDD (LC-MS/MS, Phoenix NCA and compartment model); type: in vivo, SD rats; set-up: Tmax: unit: h; details: for AUC(0-t) / Cmax / half-life / Tmax / t1/2: hyperlipidemia rat plasma, non-compartment, n = 6; for Model (optimal PK compartment model): chosen by AIC, Phoenix Model module, rats given WDD
Method: LPO values of all the rats were assessed prior to therapy, and utilized as the baseline. […] Thermo Scientific Hypersil C18 analytical column (particle size: 1.9 µm, length: 100 mm, and diameter: 2.1 mm) was employed. Column operational conditions were like so, column temperature: 30°C, autosampler temperature: 4°C, whereas the flow rate: 0.3 mL/min. Injection volume: 3 μL, and mobile phase: aqueous solution containing 0.1% formic acid aqueous solution (A) and acetonitrile (B). […] Electrospray ion source (ESI) was used for mass spectrometry detection and analysis, both in positive and negative ion patterns. Nitrogen was kept as both of the auxiliary and sheath gas. The capillary temperature was 345°C, the atomizer temperature was 350°C, and the electrospray voltage was 3800 V. The mass spectrometry data for the 10 compounds and the internal standard (IS) are shown in Table 1. After accurately measuring 100 μL of plasma, 10 μL of the QC solution or the IS solution was supplemented, and the blend was vortexed for 30 s. Afterward, 300 μL of acetonitrile (as protein precipitant) was added, vortexed for 1 min, and then centrifuged (10 min at 12000 r/min). Finally, the supernatant was taken and stored for testing. […] The dose, plasma concentration and time after administration were imported into the NCA (Noncompartmental Analysis) module of Phoenix 8.1 to obtain the pharmacokinetic parameters. The Phoenix Model module of Phoenix software was used to establish the atrioventricular model of the drug. Akaike Information Criterion (AIC) rules were used to calculate the optimal PK model.

HDL = tested on: HDL; set-up: method as in Eu et al., 2010; details: ref Eu et al., 2010; cited from earlier work
hyperlipidemia hamsters = tested on: hyperlipidemia hamsters; set-up: method as in Shi et al., 2023; details: compared with the control group ref Shi et al., 2023; cited from earlier work
[2] = tested on: experimental hyperlipidemia rat models; set-up: method as in Kumar et al., 2020; details: experimental hyperlipidemia rat models ref Kumar et al., 2020; cited from earlier work
hyperlipidemia mice = tested on: hyperlipidemia mice; set-up: method as in Yu et al., 2022; details: hyperlipidemia mice ref Yu et al., 2022; cited from earlier work
plasma lipids = tested on: plasma lipids; set-up: method as in Sahebkar, 2017; details: randomized controlled trials ref Sahebkar, 2017, cited from earlier work
[3] = Sprague-Dawley, po, HTG: WDD 6.6 g/100 g by gavage
[4] = Sprague-Dawley, po, LTG: WDD 2.2 g/100 g by gavage
[5] = Sprague-Dawley, rat, plasma, po, 2.2 g/100 g, LTG: WDD 2.2 g/100 g by gavage
[6] = Sprague-Dawley, rat, plasma, po, 2.2 g/100 g, LTG: WDD 2.2 g/100 g by gavage, read-out: Tmax
[7] = Sprague-Dawley, rat, plasma, po, 6.6 g/100 g, HTG: WDD 6.6 g/100 g by gavage
[8] = Sprague-Dawley, rat, plasma, po, 6.6 g/100 g, HTG: WDD 6.6 g/100 g by gavage, read-out: Tmax

Row | SMILES | AUC(0-t) [1, 3] | Cmax [1, 3] | AUC(0-t) [1, 4] | Cmax [1, 4] | half-life [1, 5] | Tmax [1, 6] | half-life [1, 7] | Tmax [1, 8] | Model (optimal PK compartment model) [1] | further results
1 | CC1(C)[C@@H](O)CC[C@]2(C)[C@H]3C(=O)C=C4[C@@H]5C[C@@](C)(C(=O)O)CC[C@]5(C)CC[C@@]4(C)[C@]3(C)CC[C@@H]12 [Glycyrrhetinic acid] | 10200 ± 298 ng·h/mL | 3280 ± 475 ng/mL | 8180 ± 500 ng·h/mL | 2940 ± 220 ng/mL | 2.3 ± 0.16 h | 0.75 h | 6.02 ± 0.92 h | 0.54 ± 0.21 h | – | bioavailability (from largest AUC in rat plasma) ([1]; both doses of WDD): good bioavailability
2 | CC1(C)[C@@H](O[C@H]2O[C@H](C(=O)O)[C@@H](O)[C@H](O)[C@H]2O[C@@H]2O[C@H](C(=O)O)[C@@H](O)[C@H](O)[C@H]2O)CC[C@]2(C)[C@H]3C(=O)C=C4[C@@H]5C[C@@](C)(C(=O)O)CC[C@]5(C)CC[C@@]4(C)[C@]3(C)CC[C@@H]12 [Glycyrrhizic acid] | 128 ± 5.67 ng·h/mL | 45.1 ± 2.3 ng/mL | 104 ± 5.97 ng·h/mL | 20.6 ± 2.16 ng/mL | 10.8 ± 3.88 h | 1.5 h | 15.5 ± 7.44 h | 0.25 h | One-Compartment Model | HDL (HDL): can increase HDL
3 | COc1ccc([C@@H]2CC(=O)c3c(O)cc(O[C@@H]4O[C@H](CO[C@@H]5O[C@@H](C)[C@H](O)[C@@H](O)[C@H]5O)[C@@H](O)[C@H](O)[C@H]4O)cc3O2)cc1O [Hesperidin] | 439 ± 13.3 ng·h/mL | 194 ± 24.3 ng/mL | 172 ± 3.26 ng·h/mL | 34.6 ± 3.22 ng/mL | 12.1 ± 5.52 h | 0.67 ± 0.42 h | 4.19 ± 0.17 h | 0.75 h | One-Compartment Model | altered redox homeostasis [2]: can reduce altered redox homeostasis
4 | C[C@@H]1O[C@@H](O[C@H]2[C@H](Oc3cc(O)c4c(c3)O[C@H](c3ccc(O)cc3)CC4=O)O[C@H](CO)[C@@H](O)[C@@H]2O)[C@H](O)[C@H](O)[C@H]1O [Naringin] | 713 ± 46.4 ng·h/mL | 575 ± 17.6 ng/mL | 210 ± 12.5 ng·h/mL | 36.8 ± 4.99 ng/mL | 6.13 ± 0.94 h | 0.54 ± 0.21 h | 5 ± 1.27 h | 0.25 h | Two-Compartment Model | effect on reducing lipids and protecting liver (hyperlipidemia mice): strong effect on reducing lipids and protecting liver
5 | O=c1c(O)c(-c2ccc(O)c(O)c2)oc2cc(O)cc(O)c12 [Quercetin] | 370 ± 14.7 ng·h/mL | 115 ± 4.83 ng/mL | 212 ± 9.39 ng·h/mL | 98.4 ± 8.03 ng/mL | 31.1 ± 41.4 h | – | – | 0.75 h | Two-Compartment Model | triglycerides (plasma lipids; doses above 50 mg/day): significant reduction; effect on plasma lipids (plasma lipids; supplementation): does not have any clinically relevant effect; t1/2 ([1]; HTG: WDD 6.6 g/100 g by gavage): 7.75 ± 12.99 h; Tmax ([1]; LTG: WDD 2.2 g/100 g by gavage): 1.00 ± 0.00 h
6 | COc1ccc(-c2cc(=O)c3c(OC)c(OC)c(OC)c(OC)c3o2)cc1 [Tangeretin] | 22.4 ± 0.89 ng·h/mL | 25.9 ± 2.98 ng/mL | 10.8 ± 0.32 ng·h/mL | 6.8 ± 0.46 ng/mL | 8.83 ± 4.57 h | 0.5 h | 3.21 ± 0.89 h | 0.38 ± 0.13 h | Two-Compartment Model | –

Second part, led by results:

Row | AUC(0-t) [1, 3] | Cmax [1, 3] | AUC(0-t) [1, 4] | Cmax [1, 4] | half-life [1, 5] | Tmax [1, 6] | half-life [1, 7] | Tmax [1, 8] | Model (optimal PK compartment model) [1] | SMILES | further results
7 | 3890 ± 147 ng·h/mL | 607 ± 130 ng/mL | 1030 ± 23.8 ng·h/mL | 223 ± 8.19 ng/mL | 5.88 ± 3.39 h | 1.42 ± 0.92 h | 3.21 h | – | One-Compartment Model | COc1ccc([C@@H]2CC(=O)c3c(O)cc(O)cc3O2)cc1O [Hesperetin] | Tmax ([1]; HTG: WDD 6.6 g/100 g by gavage): 0.67 ± 0.17 h; t1/2 ([1]; HTG: WDD 6.6 g/100 g by gavage): 6.24 ± 0.36 h; Tmax ([1]; HTG: WDD 6.6 g/100 g by gavage, listed as hesperetin): 0.25 h; body weight, obesity index, serum TC, TG, liver TC, TG and free fatty acid levels (hyperlipidemia hamsters): significantly decreased
8 | 54.9 ± 2.07 ng·h/mL | 17.8 ± 3.31 ng/mL | 48.5 ± 0.82 ng·h/mL | 16.2 ± 2.35 ng/mL | 27.4 ± 4.66 h | 0.5 h | 14.6 ± 9 h | – | – | O=C(/C=C/c1ccc(O)cc1)c1ccc(O)cc1O [Isoliquiritigenin] | Tmax ([1]; HTG: WDD 6.6 g/100 g by gavage): 0.79 ± 0.21 h; Tmax ([1]; HTG: WDD 6.6 g/100 g by gavage, listed as isoliquiritigenin): 0.25 h
9 | 595 ± 15.4 ng·h/mL | 139 ± 10.6 ng/mL | 587 ± 14.3 ng·h/mL | 110 ± 6.8 ng/mL | 12.5 ± 4.08 h | 0.75 h | 11.7 ± 1.94 h | 0.75 h | One-Compartment Model | O=C1C[C@@H](c2ccc(O)cc2)Oc2cc(O)cc(O)c21 [Naringenin] | –
10 | 6010 ± 96.4 ng·h/mL | 537 ± 7.69 ng/mL | 3560 ± 300 ng·h/mL | 388 ± 25.8 ng/mL | 12.2 ± 1.65 h | 1.5 h | 11.8 ± 1.81 h | 2.67 ± 0.33 h | Two-Compartment Model | C[n+]1cccc(C(=O)[O-])c1 [Trigonelline] | –
